pEC50: −log10 of the molar value. Calls of active or inactive are those of the source. How the calls were made is not given here.
These compounds were tested against Intestinal-type alkaline phosphatase (Homo sapiens) (UniProt P09923) (assay: human IAP activators, SAR follow-up, mouse IAP activator project, biochemical, human enzyme for mouse series (AID 493145)). Conditions: purified human intestinal alkaline phosphatase, enzymatic activity.
Intestinal-type alkaline phosphatase (Homo sapiens), sequence (P09923 whole entry, looked up): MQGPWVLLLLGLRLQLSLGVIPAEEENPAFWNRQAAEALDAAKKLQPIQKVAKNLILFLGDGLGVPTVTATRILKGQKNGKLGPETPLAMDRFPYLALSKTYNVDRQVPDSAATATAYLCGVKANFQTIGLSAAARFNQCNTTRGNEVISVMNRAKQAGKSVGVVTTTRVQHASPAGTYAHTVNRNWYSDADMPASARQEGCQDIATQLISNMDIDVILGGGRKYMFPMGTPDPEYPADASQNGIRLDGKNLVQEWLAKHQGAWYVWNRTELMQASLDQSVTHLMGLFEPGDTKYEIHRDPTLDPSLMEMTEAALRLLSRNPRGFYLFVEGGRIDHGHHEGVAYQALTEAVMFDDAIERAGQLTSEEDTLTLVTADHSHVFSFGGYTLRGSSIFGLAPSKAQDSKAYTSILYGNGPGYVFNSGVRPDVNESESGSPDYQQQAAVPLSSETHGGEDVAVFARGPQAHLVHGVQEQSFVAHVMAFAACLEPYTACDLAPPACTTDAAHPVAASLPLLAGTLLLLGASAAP

| EC50 | pEC50 | Compound |
| --- | --- | --- |
| > 100 µM (inactive) |  | O=C(O)CC(C(=O)O)N1C(=O)/C(=C/c2ccc(-c3nc4ccccc4s3)o2)SC1=S (configuration not stated) |
| > 100 µM (inactive) |  | COc1ccccc1NC(=O)CCNS(=O)(=O)c1ccc2[nH]c(=O)oc2c1 |
| > 100 µM (inactive) |  | CN(C(=O)CN1C(=O)/C(=C\c2ccco2)SC1=S)C1CCS(=O)(=O)C1 (configuration not stated) |
| > 100 µM (inactive) |  | O=C(CCN1C(=O)/C(=C\c2ccco2)SC1=S)Nc1ccc(C(=O)O)c(O)c1 |
| > 100 µM (inactive) |  | COc1ccc(OC)c(NC(=O)CCNS(=O)(=O)c2ccc3[nH]c(=O)oc3c2)c1 |
| > 100 µM (inactive) |  | COc1ccc(NC(=O)C(CC(C)C)NS(=O)(=O)c2ccc3[nH]c(=O)oc3c2)cc1 (configuration not stated) |
| > 100 µM (inactive) |  | O=C(N/N=C/c1ccsc1)c1cc(O)c(O)c(O)c1 |
|  | 4.87 | COc1cc(C(=O)NNc2nc3cc4c(cc3s2)OCO4)cc(OC)c1OC |
| > 100 µM (inactive) |  | N#Cc1cccc(NC(=O)CCNS(=O)(=O)c2ccc3[nH]c(=O)oc3c2)c1 |
|  | 4.72 | COc1cc(C(=O)NNC(=S)NC(=O)c2ccc(Cl)cc2)cc(OC)c1OC |
| > 100 µM (inactive) |  | CCCSc1nnc(NC(=O)CSc2sc3c(O)cc(=O)[nH]c3c2C#N)s1 |
| > 100 µM (inactive) |  | Cc1ccc(NC(=O)CCNS(=O)(=O)c2ccc3[nH]c(=O)oc3c2)c(C)c1 |

From PubChem BioAssay AID493145 (Sanford-Burnham Center for Chemical Genomics, 2011)
